Experiments:
[1] = tested on: Kasumi-1 cells; assay: Cell growth, CellTiter-Glow luminescent cell viability assay, Kasumi-1 cells; type: cell-based, human; details: for growth of Kasumi-1 cells: 3 days of treatment
Protocol: (§1) FIGS. 8A-8F. The effect of TAF1 bromodomain inhibitor Bay-364 on the growth of Kasumi-1 cells, K562 cells and CD34+ cells. (FIGS. 8A-8C) The growth of Kasumi-1 cells, CD34+ cells and K562 cells in the presence or absence of different concentrations of bromodomain inhibitors Bay-364, Bay-299 or JQ-1. The cell growth was measured by CellTiter-Glow luminescent cell viability assay after 3 days of treatment with the inhibitors. Each treatment was in triplicate and shown as average±SD. (FIG. 8D) IC50s (μM) of inhibitors on Kasumi-1, CD34+ and K562 cellsKasumi-1 cells, CD34+ cells and K562 cells were treated with different concentrations of Bay-364, Bay-299 and JQ-1 for three days and cell growth was measured by CellTiter-Glow luminescent cell viability assay. Each treatment was in triplicate and IC50s were calculated using GraphPad Prism. […] RNA was extracted from Kasumi-1 cells treated with or without Bay-364 for 72 hours. mRNA levels of individual genes were standardized by 18S rRNA level. (FIG. 8F) TAF1 working model: Under normal conditions, the acetylation of K43 on AE by p300 is recognized by the bromodomains of TAF1 and TAF1 enhances the binding of AE to chromatin. Then transcription is activated. In absence of TAF1, the binding affinity of AE with chromatin is abrogated, and transcription is blocked.
Kasumi-1 cells were grown in RPMI 1640 supplemented with 20% fetal bovine serum, SKNO-1 cells were grown in RPMI 1640 with 10% fetal bovine serum and 10 ng/ml GM-CSF. K562 cells were grown in IMDM with 10% fetal bovine serum.
Bay-364 (also Bay-299N) is a commercially available small molecule inhibitor of the second bromodomain in TAF1. Given the essential role of TAF1 in the proliferation of AE expressing cells, the effect of Bay-364 on the growth of Kasumi-1, K562 and CD34+ cells was examined. […] JQ-1 inhibits the bromodomains of several BET family proteins including BRD2, BRD3, BRD4 and BRDT.

[2] = tested on: K562 cells; assay: Cell growth, CellTiter-Glow luminescent cell viability assay, K562 cells; type: cell-based; details: 3 days of treatment
Protocol: as §1, with “blocked. […]” for “blocked.”

[3] = tested on: CD34+ cells; assay: Cell growth, CellTiter-Glow luminescent cell viability assay, CD34+ cells; type: cell-based, human; details: 3 days of treatment
Protocol: as §1, with “(FIG. 8F) TAF1 working model: Under normal conditions, the acetylation of K43 on AE by p300 is recognized by the bromodomains of TAF1 and TAF1 enhances the binding of AE to chromatin. Then transcription is activated. In absence of TAF1, the binding affinity of AE with chromatin is abrogated, and transcription is blocked.” left out
Human cord blood was purchased from the New York Blood Center. […] Seven days after the initial plating, colonies were counted and then all the cells were collected for replating weekly with a density of 3000 cells per well for continuous 4 weeks. Cobblestone area forming cell assays (CAFC) were performed as described previously 25, the numbers of total cobblestone area were counted after 5 weeks. […]

[4] = tested on: AE upregulated genes (ID1, CARM1, MYC); assay: Realtime PCR of AE upregulated genes in Kasumi-1 cells; type: cell-based, human; details: 72 hours, standardized by 18S rRNA level
Protocol: as §1, with “In absence of TAF1, the binding affinity of AE with chromatin is abrogated, and transcription is blocked.” left out
RNA was extracted using RNeasy mini kit (Qiagen) and cDNA was generated by QuantiTect Rev. […]

Cc1cc2c(cc1N1C(=O)c3cccc4c(CCCO)ccc(c34)C1=O)n(C)c(=O)n2C [Bay-299, 6-(3-Hydroxypropyl)-2-(1,3,6-trimethyl-2-oxo-2,3-dihydro-1Hbenzimidazol-5-yl)-1H-benzo[de]isoquinoline-1,3(2H)-dione] was tested, and the “growth of Kasumi-1 cells” value [1] was “suppresses the growth”, the “growth of K562 cells” value [2] was “suppresses the growth” and the “growth of CD34+ cells” value [3] was “suppresses the growth”.
For Cn1c(=O)[nH]c2cc(N3C(=O)c4cccc5c(CCCO)ccc(c45)C3=O)ccc21 [Bay-364], the “mRNA levels of ID1, CARM1, MYC” value [4] was “repressed the expression of these genes”, the “growth of Kasumi-1 cells” value [1] was “more sensitive to Bay-364 treatment than CD34+ cells” and the “growth of K562 cells” value [2] was “little influence on the growth”. For the same compound, the “growth of CD34+ cells” value [3] was “much less toxicity on HSPCs”.
Cc1sc2c(c1C)C(c1ccc(Cl)cc1)=N[C@@H](CC(=O)OC(C)(C)C)c1nnc(C)n1-2 [JQ-1] was tested, and the “growth of Kasumi-1 cells” value [1] was “more potent than Bay-364” and the “IC50s on Kasumi-1 cells compared with CD34+ cells” value ([1]; three days, GraphPad Prism) was “quite similar”.
